Measurements taken from patent US4497806A, “Triorganotin compounds, antifungal and antibacterial compositions containing same, and method of using same” (priority 1983, dated 1985).

Key:
Escherichia coli = test: Antibacterial activity, agar growth inhibition; assay type: cell-based; settings: for growth inhibition: Gram-negative, 24 hours at 37° C.
Procedure: (§1) The agar was also needed with a 1:100 dilution of an 18-hour old culture of the desired bacterial species in sterile distilled water. The plates were incubated for 24 hours at 37° C. with each bacterial strain. Observations of bacterial growth inhibition were made following the appropriate incubation period.
(§2) A solvent control was included in all evaluations, as were growth controls for all bacteria species.
These compounds were tested for antibacterial activity in the same manner as the triorganotin 5-nitro-2-furoates of the present invention.
(§3) All of the bacteria tested were obtained from the culture collection of the Department of Biological Sciences, St. John's University.

Staphylococcus aureus = test: Antibacterial activity, agar growth inhibition; assay type: cell-based; parameters: key to growth inhibition: -: no inhibition of growth; +: partial inhibition; 2+: complete inhibition; settings: Gram-positive
Procedure: as §1, with “The antibacterial activity of Compounds A-E was investigated by means of incorporating the compounds into sterile tryptic soy agar (Difco) at levels of 100, 10, and 1 μg/ml. The agar” for “The agar”
as §2
Comparative compounds 1-5 above were employed for comparison purposes. These compounds were tested for antibacterial activity in the same manner as the triorganotin 5-nitro-2-furoates of the present invention.
as §3
The ability of Compound B to inhibit the growth of other Gram-positive bacteria, using the same test procedures as described for the antibacterial activity determined in Table III above, is illustrated in Table IV below.

[1] = system: Cladosporium carpophilium (ATCC 12117); test: Antifungal activity, agar plate growth inhibition; assay type: cell-based, Cladosporium carpophilum; settings: 14 days
Procedure: (§4) Dilutions of the sterile solutions were prepared and added to liquified potato dextrose agar (Difco) to yield final concentrations of 100, 10 and 1 μg/ml. The agar, containing the appropriate organotin compound, was poured into sterile petri dishes and allowed to solidify over night. The agar surface was inoculated centrally with a 2 mm^2 portion of the growth from a ten-day-old culture of each fungus of the group consisting of Aspergillus niger, Chaetomium globosum, Cladosporium carpophilum, Fusarium moniliforme, Myrotheium verrucaria, Penicillium notatum, Rhizopus stolonifer, Trichoderma viride and Trichophyton mentagrophytes, or from a two-day-old culture of Saccharomyces cerevisiae. Inoculated plates were incubated for 14 days and observations of growth inhibition were made by measuring the diameters of the colonies present on the agar surface.
(§5) A solvent was included in all evaluations, as were growth controls for all fungal species.
(§6) The following compounds were tested for comparative purposes: [drawing 6] These compounds were tested for antifungal activity in the same manner as the triorganotin 5-nitro-2-furoates of the present invention.

[2] = system: Fusarium moniliforme (ATCC 10052); test: Antifungal activity, agar plate growth inhibition; assay type: cell-based; settings: 14 days
Procedure: as §4, §5, §6

[3] = system: Saccharomyces cerevisiae (ATCC 9896); test: Antifungal activity, agar plate growth inhibition; assay type: cell-based; settings: 14 days
Procedure: as §4, §5, §6

[4] = system: Penicillium notatum (ATCC 9179); test: Antifungal activity, agar plate growth inhibition; assay type: cell-based; settings: 14 days
Procedure: as §4, §5, §6

[5] = system: Aspergillus niger (ATCC 12845); test: Antifungal activity, agar plate growth inhibition; assay type: cell-based; settings: 14 days
Procedure: as §4, §5, §6

[6] = system: Myrothecium verrucaria (ATCC 9095); test: Antifungal activity, agar plate growth inhibition; assay type: cell-based; settings: 14 days
Procedure: as §4, §5, §6

[7] = system: Trichoderma viride (ATCC 8678); test: Antifungal activity, agar plate growth inhibition; assay type: cell-based; settings: 14 days
Procedure: as §4, §5, §6

[8] = system: Rhizopus stolonifer (ATCC 10404); test: Antifungal activity, agar plate growth inhibition; assay type: cell-based; settings: 14 days
Procedure: as §4, §5, §6

[9] = system: Trichophyton mentagrophytes (ATCC 9129); test: Antifungal activity, agar plate growth inhibition; assay type: cell-based; settings: 14 days
Procedure: as §4, §5, §6

[10] = system: Chaetomium globosum (ATCC 6205); test: Antifungal activity, agar plate growth inhibition; assay type: cell-based; settings: 14 days
Procedure: as §4, §5, §6

Row | Compound | growth inhibition ([1]; 1 μg/ml) | growth inhibition ([1]; 10 μg/ml) | growth inhibition ([1]; 100 μg/ml) | growth inhibition ([2]; 1 μg/ml) | growth inhibition ([2]; 10 μg/ml) | growth inhibition ([2]; 100 μg/ml) | growth inhibition ([3]; 1 μg/ml) | growth inhibition ([3]; 10 μg/ml) | growth inhibition ([3]; 100 μg/ml) | growth inhibition ([4]; 1 μg/ml) | growth inhibition ([4]; 10 μg/ml) | growth inhibition ([4]; 100 μg/ml) | growth inhibition ([5]; 1 μg/ml) | growth inhibition ([5]; 10 μg/ml) | growth inhibition ([5]; 100 μg/ml) | growth inhibition ([6]; 1 μg/ml) | growth inhibition ([6]; 10 μg/ml) | growth inhibition ([6]; 100 μg/ml) | growth inhibition ([7]; 1 μg/ml) | growth inhibition ([7]; 10 μg/ml) | further results
1 | N#CN=C(Nc1ccccc1)[O][Sn]([c]1ccccc1)([c]1ccccc1)[c]1ccccc1 [Comparative Compound 3, N--phenyl, N'--cyano-O--(triphenylstannyl)-isourea, reference compound] | - | + | + | - | + | + | - | - | 2+ | - | + | + | - | + | + | + | + | + | - | - | growth inhibition (in words) (Escherichia coli; 100 μg/ml): inactive; growth inhibition (Escherichia coli; 1 μg/ml): -; growth inhibition (Escherichia coli; 10 μg/ml): -; growth inhibition (Escherichia coli; 100 μg/ml): -; minimum concentration for complete growth inhibition (Staphylococcus aureus): 100 µg/mL; growth inhibition (Staphylococcus aureus; 1 μg/ml, 24 hours at 37° C.): -; growth inhibition ([7]; 100 μg/ml): +; growth inhibition ([8]; 1 μg/ml): -; growth inhibition ([8]; 10 μg/ml): +; growth inhibition ([8]; 100 μg/ml): +; growth inhibition ([9]; 1 μg/ml): +; growth inhibition ([9]; 10 μg/ml): +; growth inhibition ([9]; 100 μg/ml): 2+; growth inhibition ([10]; 1 μg/ml): -; growth inhibition ([10]; 10 μg/ml): +; growth inhibition ([10]; 100 μg/ml): +
2 | N#CN=C(Nc1ccccc1)[S][Sn]([c]1ccccc1)([c]1ccccc1)[c]1ccccc1 [compound 2, N--phenyl, N'--cyano-S--(triphenylstannyl)-isothiourea, reference compound] | - | - | - | - | + | + | - | - | - | - | + | + | - | + | 2+ | - | + | + | - | - | growth inhibition (in words) (Escherichia coli; 100 μg/ml): partially; growth inhibition (Escherichia coli; 1 μg/ml): -; growth inhibition (Escherichia coli; 10 μg/ml): -; growth inhibition ([7]; 100 μg/ml): +; growth inhibition ([8]; 1 μg/ml): -; growth inhibition ([8]; 10 μg/ml): +; growth inhibition ([8]; 100 μg/ml): 2+; growth inhibition ([9]; 1 μg/ml): -; growth inhibition ([9]; 10 μg/ml): +; growth inhibition ([9]; 100 μg/ml): +; growth inhibition ([10]; 1 μg/ml): -; growth inhibition ([10]; 10 μg/ml): +; growth inhibition ([10]; 100 μg/ml): +
3 | N--nitrophenyl, N--(triphenylstannyl) cyanamide [compound 1, reference compound] | + | + | + | + | + | + | - | - | + | + | + | + | + | + | + | + | + | + | - | + | growth inhibition ([7]; 100 μg/ml): +; growth inhibition ([8]; 1 μg/ml): +; growth inhibition ([8]; 10 μg/ml): +; growth inhibition ([8]; 100 μg/ml): +; growth inhibition ([9]; 1 μg/ml): +; growth inhibition ([9]; 10 μg/ml): +; growth inhibition ([9]; 100 μg/ml): 2+; growth inhibition ([10]; 1 μg/ml): +; growth inhibition ([10]; 10 μg/ml): +; growth inhibition ([10]; 100 μg/ml): 2+
